According to patent US12338263B2, “Antibacterial aminoglycoside derivatives” (priority 2019, dated 2025):
≈ marks a conversion by molar mass, not a printed value. Where two headings read alike, the source gives them in different places.

How the values were obtained:
[1] = Toxicity test on HK-2 cells (Alma Blue); type: cell-based; details: human
Procedure: (§1) On the day of the experiment, when the HK-2 cells in the culture flask reached 80%-90% confluent, the culture medium was discarded, the cells were washed twice with Dulbecco's phosphate buffered saline (DPBS) and digested for 1 to 2 minutes with 3 mL trypsin (T150 cell culture flask), and immediately 9 ml complete medium (RPMI1640+10% FBS) were added to terminate the digestion. After termination, single cells suspension were formed by pipetting gently, which were centrifuged at 1000 […] for 5 minutes. The supernatant was discarded, and fresh complete medium were added, and the cells were pipetted evenly. The actual cell density was measured according to the cell counter and the cell suspension was adjusted to 2.5×10^5 cells/mL. 80 μL of cell suspension was drawn by a row pipettor and added into a 96-well black bottom plate (2×10^4 cell/well), and then incubated in a carbon dioxide incubator for 4.5 hours, which was defined as a cell plate.
(§2) • a. The compound mother liquor was prepared according to the following table, with complete medium as the solvent;
(§3) • b. 50 microliters of complete medium was added into columns 3-11 in the 96-v well plate; • c. 75 microliters of test compound (50 mg/mL) and positive control were added to the second column of the 96-v well plate; • d. 25 microliters of compound was drawn from the second column and added into the third column, blown and sucked a few times by a row pipettor, then 25 microliters of liquid was drawn from the third column and added to the fourth column, and subsequently subjected to a 3-fold series dilution until the 10th column. From column 2 to column 11, the compound concentration was 50, 16.67, 5.56, 1.85, 0.62, 0.21, 0.07, 0.02, 0.008, 0 mg/mL; • e. 20 μL compound solutions of various concentrations prepared were transferred by a row pipettor to the corresponding wells of the cell plate, which was defined as a testing plate. Culture of the Testing Plate:
(§4) All the plates were incubated in an incubator at 37° C., 5% CO2 for 43 hours.
(§5) After incubation, 10 microliters of Alma Blue was added to the testing plate. The testing plate was immediately incubated in an incubator at 37° C., 5% CO2 for 3 hours. Then the fluorescence value of each well of the testing plate was read by a microplate reader (wavelength Ex 540 nm/Em 585 nm). Then prism software was used to simulate the curve to calculate CC50 value.

HK-2 cells = test: Toxicity test on HK-2 cells (Alma Blue); type: cell-based; details: for Maximum inhibition rate: 43 hours incubation plus 3 hours Alma Blue
Procedure: as §1, §2, §3, §4, §5

[2] = tested on: Klebsiella pneumoniae ATCC-BAA-1705; test: Drug efficacy in mice (mouse pneumonia model); type: in vivo; details: CD-1 mice, 10 mpk and 30 mpk subcutaneously 2 h and 10 h after infection, read at 24 h; FIG. 2
Procedure: 21 CD-1 mice were divided into 7 cages, 3 mice per cage, and were injected intraperitoneally with the immunosuppressant cyclophosphamide (150 mpk) on the 4th day.
On the first day, 7 cages of mice were injected intraperitoneally again with the immunosuppressant cyclophosphamide (100 mpk). The strain Kpn ATCC-BAA-1705 (Klebsiella pneumoniae ATCC-BAA-1705) was recovered on a MHA plate. The recovered colonies were picked and dissolved in saline to prepare Kpn ATCC-BAA-1705 bacterial solution with a concentration of 4.00E+08 CFU/mL for later use in mouse lung infection. The amount of bacterial solution infected in the lung of experimental mice was 50 μL/mouse, that is, the inoculation amount was 2.00E+07 CFU/mouse. At 2 h and 24 h infection, the lung tissue of the mice in control group was taken and placed in 5 mL saline, homogenized, and dotted on a plate with gradient dilution.
The specific administration of mice was as follows: • (1) 2 h after infection: At the end of 2 h after infection, the lung tissue of the mice in the first cage was taken and placed in 5 mL saline, homogenized, and dotted on a plate with gradient dilution, two duplications for each mouse. The amount of bacteria loaded in the lung tissue of the mouse was counted. Mice in the third and fourth cages were injected respectively with 30 mpk and 10 mpk compound Plazomicin subcutaneously, mice in the fifth and sixth cages were injected respectively with 30 mpk and 10 mpk compound subcutaneously, and mice in the seventh cage were injected with 100 mpk meropenem subcutaneously. • (2) 10 h after infection: Mice in the third and fourth cages were injected respectively with 30 mpk and 10 mpk plazomicin subcutaneously, mice in the fifth and sixth cages were injected respectively with 30 mpk and 10 mpk compound 1 subcutaneously, and mice in the seventh cage were injected with 100 mpk meropenem subcutaneously. At the end of 24 h infection, the lung tissue of the mice in the second to seventh cages was taken and placed in 5 mL saline, homogenized, and dotted on a plate with gradient dilution, two duplications for each mouse. The amount of bacteria carried in the lung tissue of the mouse was counted, and the experimental results were summarized and shown in FIG. 2.

cochlear hair cells = test: Auditory safety: hair cell staining and counting on the basilar membrane of the cochlea; type: in vivo, guinea pigs
Procedure: (§6) Healthy adult guinea pigs (150-250 g) were employed as the research objects, and were randomly divided into saline control group, gentamicin group, compound Plazomicin group and Compound 1 group, with 8 animals in each group. Subcutaneous administration is used, and the following assays were carried out during and after the administration for 14 consecutive days: • 1. To analyze the effects of different drugs on the auditory function of guinea pigs, the compound action potential (CAP) of animals was recorded on the 14th day (29th day, i.e., 4 weeks) after administration. The results obtained were analyzed and the changes of the threshold shift, amplitude, latency and other indicators among different treatment groups were compared. • 2. After the different groups of animals were processed and the auditory function data thereof were collected, the cochlea of the animals was taken out for fixation and staining. Surface preparation of basilar membrane of the cochlea on one side was performed to count the loss of hair cells so as to make a cochlea map, and the cochlea on the other side was decalcified and frozen sectioned. The density of spiral ganglion neurons was counted and compared among groups. Research Results: 1. Administration Method and Treatment
(§7) Gentamicin from Dalian Meilun Biotechnology Co., Ltd., and Plazomicin and Compound 1 from WuXi AppTec (WuHan) Co., Ltd. are used, the solution of which were prepared just before use each time by using saline for dissolution to the concentration of 50 mg/mL, and the injection dose was 100 mg/kg body weight. Method: subcutaneous injection, and confirmation of no liquid leakage after each injection.
In order to compare the effects of different drugs on hair cells, hair cell staining and counting on the whole basilar membrane of the cochlea are performed. […] The Plazomicin group had 11.2-28.1% loss of outer hair cells in the high frequency (70-100% from the apical turn) and 16.7-24.2% loss of the outer hair cells at the beginning of the apical turn (10-20%). However, in the Compound 1 group, the loss of outer hair cells only occurred in the low-frequency region (from the top turn −40%), in which the loss rate of outer hair cells was about 2.5-11%, and the outer hair cells were relatively intact in the high frequency area (see FIG. 6 B).

[3] = tested on: auditory function in guinea pigs; test: Auditory safety: compound action potential (CAP) in guinea pigs; type: in vivo
Procedure: as §6, §7
The compound action potential (CAP) was tested and recorded when clicks and different frequencies of pure tones (1 KHz-32 kHz) were applied to each group of animals, and variations in amplitude and latency were mainly compared when clicks and medium and high frequency pure tones (16, 32 kHz) were applied. The magnitude of amplitude reflects the responsiveness of hair cells and auditory nerves. The larger the amplitude and the greater the slope of the I/O curve were, the better the responsiveness and the better the function were. In addition, the cochlea from apical turn to basal turn was responsive to sounds from low-frequency to high-frequency respectively, which is the frequency correspondence of the cochlear basilar membrane. The functional changes to different frequencies correspond to the different structural and functional changes of the cochlea fromapical turn to basal turn. The length of latency was also related to the function of the hair cells and auditory nerve response. Generally speaking, increasing of the threshold value when the cochlea was injured would inevitably lead to the extension of latency. […] In other words, the extension of latency reflected the decrease of response function. The previous ototoxicity of aminoglycoside antibiotics was mainly concentrated in the high-frequency area. In this study, the gentamicin group was consistent with previous results, as summarized below.

spiral ganglion neurons = test: Auditory safety: density of spiral ganglion neurons; type: in vivo, guinea pigs
Procedure: as §6, §7
The cochlea of the guinea pig was defined as Turn 1, Turn 2, Turn 3, and Turn 4 from the basal to the apical turn. The spiral ganglion neurons (SGNs) were stained with TuJ on frozen sections, and the density thereof in a specific area were counted and compared between groups. […] Through the two-way ANOVA, there was a significant difference between the groups, F(3, 74)=35.43, p<0.0001 (see FIG. 7).

[4] = 43 hours incubation plus 3 hours Alma Blue, read-out: CC50 of HK-2 cell
[5] = predicted from toxicity regression curve, read-out: CC50 of compound on cells predicted by software (Prism)
[6] = guinea pig, in vivo, sc, 100 mg/kg
[7] = guinea pig, in vivo, sc, 100 mg/kg, 29 day
[8] = position 10 (% from the apical turn)
[9] = position 20 (% from the apical turn)
[10] = position 30 (% from the apical turn)
[11] = position 40 (% from the apical turn)
[12] = position 50 (% from the apical turn)
[13] = position 60 (% from the apical turn)
[14] = position 70 (% from the apical turn)
[15] = position 80 (% from the apical turn)
[16] = position 90 (% from the apical turn)
[17] = position 100 (% from the apical turn)

NCC[C@H](O)C(=O)N[C@@H]1C[C@H](N)[C@@H](O[C@H]2O[C@H](CN)[C@@H](O)[C@H](O)[C@H]2O)[C@H](O)[C@H]1O[C@H]1O[C@H](CO)[C@@H](O)[C@H](N)[C@H]1O [Amikacin]
CC50 at 43 h [1, 4]: 8.16 mg/mL
CC50 at 43 h [1, 5]: 8.16 mg/mL (≈ 13.9 mM)
Maximum inhibition rate (HK-2 cells): 68.40%

CCN[C@@H]1C[C@H](N)[C@@H](O[C@H]2OC(CN)=CC[C@H]2N)[C@H](O)[C@H]1O[C@H]1OC[C@](C)(O)[C@H](NC)[C@H]1O [Netilmicin]
CC50 at 43 h [1, 4]: 10.6 mg/mL
CC50 at 43 h [1, 5]: 10.6 mg/mL (≈ 22.4 mM)
Maximum inhibition rate (HK-2 cells): 48.73%

CN[C@@H]1[C@@H](O)[C@@H](O[C@@H]2[C@@H](O)[C@H](O[C@H]3OC(CNCCO)=CC[C@H]3N)[C@@H](N)C[C@H]2NC(=O)[C@@H](O)CCN)OC[C@]1(C)O [Plazomicin]
in vivo activity in lung infection model (bacteria in lung tissue) [2]: good in vivo activity
loss of inner hair cells (cochlear hair cells; guinea pig, in vivo, 29 day): 3.5±3.0%
CAP amplitude under click [3, 6]: caused hearing damage
CAP amplitude at 16 kHz [3, 7]: 282.058±22.569 uv
CAP amplitude at 32 kHz [3, 7]: 62.982±7.561 uv
hearing damage (CAP amplitude) at 16 kHz [3, 7]: 25.9%
hearing damage (CAP amplitude) at 32 kHz [3, 7]: 48.2%
damage to spiral ganglion neurons (SGN density vs Control group) (spiral ganglion neurons; [6]): decrease in SGN density near the apical turn
CC50 at 43 h [1, 4]: > 10 mg/mL
CC50 at 43 h [1, 5]: 19.5 mg/mL (≈ 33 mM)
toxicity to HK-2 cells compared with Netilmicin and Amikacin (HK-2 cells): significantly lower than that of Netilmicin and Amikacin
Maximum inhibition rate (HK-2 cells): 35.98%

Gentamicin
loss of outer hair cells (cochlear hair cells; medium and high frequency region (60-100% from the apical turn)): 12-67.7%
loss of inner hair cells (cochlear hair cells; near the end of the basal turn (100% from the apical turn)): 9.3±4.1%
Damage of inner hair cells on Day 29 (cochlear hair cells; [8]): 0%
Damage of outer ear hair cells on Day 29 (cochlear hair cells; [8]): 9.5 ± 2.9%
Damage of inner hair cells on Day 29 (cochlear hair cells; [9]): 0%
Damage of outer ear hair cells on Day 29 (cochlear hair cells; [9]): 4.1 ± 0.7%
Damage of inner hair cells on Day 29 (cochlear hair cells; [10]): 0%
Damage of outer ear hair cells on Day 29 (cochlear hair cells; [10]): 2.7 ± 0.7%
Damage of inner hair cells on Day 29 (cochlear hair cells; [11]): 0%
Damage of outer ear hair cells on Day 29 (cochlear hair cells; [11]): 3.2 ± 1.0%
Damage of inner hair cells on Day 29 (cochlear hair cells; [12]): 0%
Damage of outer ear hair cells on Day 29 (cochlear hair cells; [12]): 3.2 ± 1.5%
Damage of inner hair cells on Day 29 (cochlear hair cells; [13]): 0.4 ± 0.4%
Damage of outer ear hair cells on Day 29 (cochlear hair cells; [13]): 12.6 ± 5.6%
Damage of inner hair cells on Day 29 (cochlear hair cells; [14]): 0.6 ± 0.6%
Damage of outer ear hair cells on Day 29 (cochlear hair cells; [14]): 13.6 ± 6.1%
Damage of inner hair cells on Day 29 (cochlear hair cells; [15]): 0.2 ± 0.2%
Damage of outer ear hair cells on Day 29 (cochlear hair cells; [15]): 12.0 ± 5.4%
Damage of inner hair cells on Day 29 (cochlear hair cells; [16]): 2.5 ± 1.7%
Damage of outer ear hair cells on Day 29 (cochlear hair cells; [16]): 42.8 ± 8.2%
Damage of inner hair cells on Day 29 (cochlear hair cells; [17]): 9.3 ± 4.1%
Damage of outer ear hair cells on Day 29 (cochlear hair cells; [17]): 67.7 ± 9.8%
CAP amplitude at 16 kHz ([3]; guinea pigs, 100 mg/kg subcutaneous 14 days, 29th day, 16 kHz, 90 dB): 373.329±15.332 uv
CAP amplitude at 32 kHz ([3]; guinea pigs, 100 mg/kg subcutaneous 14 days, 29th day, 32 kHz, 90 dB): 31.272±5.137 uv
CAP amplitude under click ([3]; guinea pigs, 100 mg/kg subcutaneous 14 days, 29th day, click): consistent with the Control group
hearing damage (CAP amplitude) at 32 kHz ([3]; guinea pigs, 100 mg/kg subcutaneous for 14 consecutive days, 29th day, 32 kHz): 74.3%
Density of spiral ganglion neurons on Day 29 (spiral ganglion neurons; Turn 1 (basal turn)): 4.407 ± 0.517 n/10000 μm^2
Density of spiral ganglion neurons on Day 29 (spiral ganglion neurons; Turn 2): 5.540 ± 0.757 n/10000 μm^2
Density of spiral ganglion neurons on Day 29 (spiral ganglion neurons; Turn 3): 4.604 ± 0.598 n/10000 μm^2
Density of spiral ganglion neurons on Day 29 (spiral ganglion neurons; Turn 4 (apical turn)): 5.259 ± 0.280 n/10000 μm^2
damage to spiral ganglion neurons (SGN density vs Control group) (spiral ganglion neurons; guinea pigs, 100 mg/kg subcutaneous 14 days, FIG. 7): obvious damage in each turn
